Usually EC50 stands for the concentration at which the effect is half-maximal.

In this assay the test system is RKO p21 uninduced (proliferating) colon adenocarcinoma cells. Put plainly: Alamar Blue cell viability assay, RKO p21 uninduced (proliferating). The class given is cell-based. As to conditions: Homo sapiens, Table B3, anti-proliferative/cytotoxic activity, 72 hours, read-out: −log EC50 RKO p21 uninduced (proliferating) (converted). Put shortly:
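RKO p21 or p27 subclones grown without Ponasterone A, i.e. proliferating, exposed 24 h after seeding to semi-log compound dilutions in DMEM/10% FCS (1% DMSO controls) for 72 h at 37° C. Alamar Blue fluorescence (544/590 nm) read relative to untreated cells; EC50 from dose-response curves, given as −log EC50 (mol/l).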
Background: The colour change of resazurin is a common sign of viable cells or microbes.

In the case of `CCNCCN1C(=O)N2[C@H](c3cccc(O)c3)c3[nH]c4cc(F)c(Cl)cc4c3C[C@@]2(C)C1=O` (racemic) [Example 338, (3aSR,10RS)-6-Chloro-2-(2-ethylamino-ethyl)-7-fluoro-10-(3-hydroxy-phenyl)-3a-methyl-3a,4,9,10-tetrahydro-2,9,10a-triaza-cyclopenta[b]fluorene-1,3-dione], the EC50 is at most 39.8 nM.

Take `CC(C)(C)NCCN1C(=O)N2[C@H](c3cccc(O)c3)c3[nH]c4cc(F)c(Cl)cc4c3C[C@@]2(C)C1=O` (racemic) [Example 345, (3aSR,10RS)-2-(2-tert-Butylamino-ethyl)-6-chloro-7-fluoro-10-(3-hydroxy-phenyl)-3a-methyl-3a,4,9,10-tetrahydro-2,9,10a-triaza-cyclopenta[b]fluorene-1,3-dione]: the EC50 is at most 39.8 nM.

With `COc1ccc2[nH]c3c(c2c1)C[C@@]1(C)C(=O)N(CCCNCC(C)C)C(=O)N1[C@@H]3c1cccc(O)c1` [Example 534, (3aS,10R)-10-(3-Hydroxy-phenyl)-2-(3-isobutylamino-propyl)-6-methoxy-3a-methyl-3a,4,9,10-tetrahydro-2,9,10a-triaza-cyclopenta[b]fluorene-1,3-dione], the EC50 was at most 39.8 nM.

Take `CCOc1ccc2[nH]c3c(c2c1)C[C@@]1(C)C(=O)N(CCN(CC)CCOC)C(=O)N1[C@@H]3c1cccc(O)c1` (racemic) [Example 299, (3aSR,10RS)-6-Ethoxy-2-{2-[ethyl-(2-methoxy-ethyl)-amino]-ethyl}-10-(3-hydroxy-phenyl)-3a-methyl-3a,4,9,10-tetrahydro-2,9,10a-triaza-cyclopenta[b]fluorene-1,3-dione]: the EC50 was 39.8 to 251 nM.

With `C=CCN(C)CCN1C(=O)N2[C@H](c3cccc(O)c3)c3[nH]c4cc(F)c(OC)cc4c3C[C@@]2(C)C1=O` (racemic) [Example 452, (3aSR,10RS)-2-[2-(Allyl-methyl-amino)-ethyl]-7-fluoro-10-(3-hydroxy-phenyl)-6-methoxy-3a-methyl-3a,4,9,10-tetrahydro-2,9,10a-triaza-cyclopenta[b]fluorene-1,3-dione], the EC50 was 39.8 to 251 nM.

For `COc1cc2c3c([nH]c2cc1F)[C@@H](c1cccc(O)c1)N1C(=O)N(CCCN2CCN(C)CC2)C(=O)[C@]1(C)C3` (racemic) [Example 325, (3aSR,10RS)-7-Fluoro-10-(3-hydroxy-phenyl)-6-methoxy-3a-methyl-2-[3-(4-methyl-piperazin-1-yl)-propyl]-3a,4,9,10-tetrahydro-2,9,10a-triaza-cyclopenta[b]fluorene-1,3-dione], the EC50 was 39.8 to 251 nM.

With `CN(C)CCCN1C(=O)N2[C@H](c3cccc(O)c3)c3[nH]c4ccc(OC(F)F)cc4c3C[C@@]2(C)C1=O` (racemic) [Example 314, (3aSR,10RS)-6-(1,1-Difluoro-methoxy)-2-(3-dimethylamino-propyl)-10-(3-hydroxy-phenyl)-3a-methyl-3a,4,9,10-tetrahydro-2,9,10a-triaza-cyclopenta[b]fluorene-1,3-dione], the EC50 is at most 39.8 nM.

Take `C=CCN(C)CCCN1C(=O)N2[C@H](c3cccc(O)c3)c3[nH]c4ccc(Br)cc4c3C[C@@]2(C)C1=O` (racemic) [Example 371, (3aSR,10RS)-2-[3-(Allyl-methyl-amino)-propyl]-6-bromo-10-(3-hydroxy-phenyl)-3a-methyl-3a,4,9,10-tetrahydro-2,9,10a-triaza-cyclopenta[b]fluorene-1,3-dione]: the concentration giving a half-maximal response (EC50) was at most 39.8 nM.

As for `C[C@@]12Cc3c([nH]c4ccc(Br)cc34)[C@@H](c3cccc(O)c3)N1C(=O)N(CCCNCCO)C2=O` (racemic) [Example 235, (3aSR,10RS)-6-Bromo-2-[3-(2-hydroxy-ethylamino)-propyl]-10-(3-hydroxy-phenyl)-3a-methyl-3a,4,9,10-tetrahydro-2,9,10a-triaza-cyclopenta[b]fluorene-1,3-dione], the EC50 is at most 39.8 nM.

Turning to `CCNCCCN1C(=O)N2[C@H](c3cccc(O)c3)c3[nH]c4ccc(OCC)cc4c3C[C@@]2(C)C1=O` (racemic) [Example 187, (3aSR,10RS)-6-Ethoxy-2-(3-ethylamino-propyl)-10-(3-hydroxy-phenyl)-3a-methyl-3a,4,9,10-tetrahydro-2,9,10a-triaza-cyclopenta[b]fluorene-1,3-dione], the EC50 is 39.8 to 251 nM.

`CC(=O)N1CCN(CCN2C(=O)N3[C@H](c4cccc(O)c4)c4[nH]c5cc(F)c(Cl)cc5c4C[C@@]3(C)C2=O)CC1` (racemic) [Example 360, (3aSR,10RS)-2-[2-(4-Acetyl-piperazin-1-yl)-ethyl]-6-chloro-7-fluoro-10-(3-hydroxy-phenyl)-3a-methyl-3a,4,9,10-tetrahydro-2,9,10a-triaza-cyclopenta[b]fluorene-1,3-dione]: the EC50 is 39.8 to 251 nM.

For the compound `C=CCN(C)CCCN1C(=O)N2[C@H](c3cccc(O)c3)c3[nH]c4cc(F)c(Cl)cc4c3C[C@@]2(C)C1=O` (racemic) [Example 472, (3aSR,10RS)-2-[3-(Allyl-methyl-amino)-propyl]-6-chloro-7-fluoro-10-(3-hydroyx-phenyl)-3a-methyl-3a,4,9,10-tetrahydro-2,9,10a-triaza-cyclopenta[b]fluorene-1,3-dione], the EC50 was 39.8 to 251 nM.

For `C[C@@]12Cc3c([nH]c4ccc(OC(F)F)cc34)[C@@H](c3cccc(O)c3)N1C(=O)N(CCNC1CCC1)C2=O` (racemic) [Example 272, (3aSR,10RS)-2-(2-Cyclobutylamino-ethyl)-6-(1,1-difluoro-methoxy)-10-(3-hydroxy-phenyl)-3a-methyl-3a,4,9,10-tetrahydro-2,9,10a-triaza-cyclopenta[b]fluorene-1,3-dione], the EC50 is at most 39.8 nM.

In the case of `CCN(CCCN1C(=O)N2[C@H](c3cccc(O)c3)c3[nH]c4cc(F)c(OC)cc4c3C[C@@]2(C)C1=O)CCOC` (racemic) [Example 316, (3aSR,10RS)-2-{3-[Ethyl-(2-methoxy-ethyl)-amino]-propyl}-7-fluoro-10-(3-hydroxy-phenyl)-6-methoxy-3a-methyl-3a,4,9,10-tetrahydro-2,9,10a-triaza-cyclopenta[b]fluorene-1,3-dione], the EC50 is 39.8 to 251 nM.

Take `C=CCN(C)CCN1C(=O)N2[C@H](c3cccc(O)c3)c3[nH]c4ccc(OC(F)F)cc4c3C[C@@]2(C)C1=O` (racemic) [Example 290, (3aSR,10RS)-2-[2-(Allyl-methyl-amino)-ethyl]-6-(1,1-difluoro-methoxy)-10-(3-hydroxy-phenyl)-3a-methyl-3a,4,9,10-tetrahydro-2,9,10a-triaza-cyclopenta[b]fluorene-1,3-dione]: the EC50 is 39.8 to 251 nM.

Consider `CCOc1ccc2[nH]c3c(c2c1)C[C@@]1(C)C(=O)N(CCN(C)CCO)C(=O)N1[C@@H]3c1cccc(O)c1` (racemic) [Example 297, (3aSR,10RS)-6-Ethoxy-2-{2-[(2-hydroxy-ethyl)-methyl-amino]-ethyl}-10-(3-hydroxy-phenyl)-3a-methyl-3a,4,9,10-tetrahydro-2,9,10a-triaza-cyclopenta[b]fluorene-1,3-dione], for which the EC50 is 39.8 to 251 nM.

With `CC(C)N(C)CCCN1C(=O)N2[C@H](c3cccc(O)c3)c3[nH]c4ccc(OC(F)F)cc4c3C[C@@]2(C)C1=O` (racemic) [Example 179, (3aSR,10RS)-6-(1,1-Difluoro-methoxy)-10-(3-hydroxy-phenyl)-2-[3-(isopropyl-methyl-amino)-propyl]-3a-methyl-3a,4,9,10-tetarhydro-2,9,10a-triaza-cyclopenta[b]fluorene-1,3-dione], the EC50 is at most 39.8 nM.

Consider `CN1CCN(CCCN2C(=O)N3[C@H](c4cccc(O)c4)c4[nH]c5ccc(Br)cc5c4C[C@@]3(C)C2=O)CC1` (racemic) [Example 375, (3aSR,10RS)-6-Bromo-10-(3-hydroxy-phenyl)-3a-methyl-2-[3-(4-methyl-piperazin-1-yl)-propyl]-3a,4,9,10-tetrahydro-2,9,10a-triaza-cyclopenta[b]fluorene-1,3-dione], for which the EC50 is at most 39.8 nM.

As to `COc1cc2c3c([nH]c2cc1F)[C@@H](c1cccc(O)c1)N1C(=O)N(CCCN2CCCCC2)C(=O)[C@]1(C)C3` (racemic) [Example 324, (3aSR,10RS)-7-Fluoro-10-(3-hydroxy-phenyl)-6-methoxy-3a-methyl-2-(3-piperidin-1-yl-propyl)-3a,4,9,10-tetrahydro-2,9,10a-triaza-cyclopenta[b]fluorene-1,3-dione], the EC50 is 39.8 to 251 nM.

As for `C[C@@]12Cc3c([nH]c4ccc(OC(F)F)cc34)[C@@H](c3cccc(O)c3)N1C(=O)N(CCCN1CCCCCC1)C2=O` (racemic) [Example 243, (3aSR,10RS)-2-(3-Azepan-1-yl-propyl)-6-(1,1-difluoro-methoxy)-10-(3-hydroxy-phenyl)-3a-methyl-3a,4,9,10-tetrahydro-2,9,10a-triaza-cyclopenta[b]fluorene-1,3-dione], the EC50 was at most 39.8 nM.

With `COc1ccc2[nH]c3c(c2c1)C[C@@]1(C)C(=O)N(CCCN(C)CCO)C(=O)N1[C@@H]3c1cccc(O)c1` [Example 542, (3aS,10R)-2-{3-[(2-Hydroxy-ethyl)-methyl-amino]-propyl}-10-(3-hydroxy-phenyl)-6-methoxy-3a-methyl-3a,4,9,10-tetrahydro-2,9,10a-triaza-cyclopenta[b]fluorene-1,3-dione], the EC50 is at most 39.8 nM.

On to `C#CCNCCCN1C(=O)N2[C@H](c3cccc(O)c3)c3[nH]c4cc(F)c(OC)cc4c3C[C@@]2(C)C1=O` (racemic) [Example 309, (3aSR,10RS)-7-Fluoro-10-(3-hydroxy-phenyl)-6-methoxy-3a-methyl-2-(3-prop-2-ynylamino-propyl)-3a,4,9,10-tetrahydro-2,9,10a-triaza-cyclopenta[b]fluorene-1,3-dione], for which the EC50 was 39.8 to 251 nM.

As for `COc1cc2c3c([nH]c2cc1F)[C@@H](c1cccc(O)c1)N1C(=O)N(CCN(C)C(C)C)C(=O)[C@]1(C)C3` (racemic) [Example 259, (3aSR,10RS)-7-Fluoro-10-(3-hydroyx-phenyl)-2-[2-(isopropyl-methyl-amino)-ethyl]-6-methoxy-3a-methyl-3a,4,9,10-tetrahydro-2,9,10a-triaza-cyclopenta[b]fluorene-1,3-dione], the EC50 is 39.8 to 251 nM.

The values above are taken from patent US8530493B2, “Indolopyridines as Eg5 kinesin modulators” (4SC AG, priority 2006, dated 2013).
